Drawing on ChEMBL document CHEMBL5052843, “Inhibitors of apol1 and methods of using same” (2020), this text covers IC50 for 43 compounds.

The subject of test [1] is Trypanosoma brucei brucei. The experiment in a line: Antitrypanosomal activity against Trypanosoma brucei brucei assessed as trypanosome lysis using recombinant APOL1 protein G1 variant and measured by Alamar blue based fluorescene assay. The format is functional, organism-based. In general terms: Resazurin is reduced to fluorescent resorufin, in cell work by metabolically active cells.

A further test has as its target Apolipoprotein L1 (Homo sapiens, UniProt O14791). The experiment in a line: Inhibition of APOL1 G1 variant in human HEK293-T-REx cells measured by Thallium assay. The format is cell-based.

Consider `O=C(CCc1c(-c2ccc(F)cc2)[nH]c2c(F)cc(F)cc12)N[C@H]1CCNC1=O`, for which the IC50 (in test [1]; against Apolipoprotein L1) was < 250 nM each time.

Regarding `O=C(CCc1c(-c2ccccc2)[nH]c2cc(F)c(F)cc12)N[C@@H]1C(=O)NC[C@H]1O`, the IC50 (in test [1]; at Apolipoprotein L1) was < 250 nM each time.

Take `O=C(CCc1c(-c2ccc(F)cc2)[nH]c2ccccc12)N[C@@H]1C(=O)NC[C@H]1O`: the IC50 (in test [1]; on Apolipoprotein L1) was < 250 nM each time.

For the compound `O=C(CCc1c(-c2ccc(F)cc2)[nH]c2c(OC(F)F)cc(F)cc12)N[C@@H]1C(=O)NC[C@H]1O`, the 50% inhibitory concentration (IC50) in test [1] is 250 nM; at Apolipoprotein L1 it was < 250 nM.

Regarding `COc1cc(F)cc2c(CCC(=O)N[C@@H]3C(=O)NC[C@H]3O)c(-c3ccc(F)cc3)[nH]c12`, the IC50 (in test [1]; against Apolipoprotein L1) was < 250 nM each time.

For the compound `O=C(CCc1c(-c2ccc(F)cc2)[nH]c2c(Cl)cc(F)cc12)N[C@@H]1C(=O)NC[C@H]1O`, the IC50 (in test [1]; against Apolipoprotein L1) was < 250 nM each time.

In the case of `O=C(CCc1c(-c2ccccc2)[nH]c2c(F)cccc12)N[C@@H]1C(=O)NC[C@H]1O`, the IC50 (in test [1]; on Apolipoprotein L1) was < 250 nM throughout.

As to `Cc1ccc2[nH]c(-c3ccc(Br)cc3)c(CCC(=O)N[C@H]3CCNC3=O)c2c1`, the IC50 (in test [1]; on Apolipoprotein L1) was < 250 nM in each case.

Take `O=C(CCc1c(-c2ccc(OC(F)F)cc2)[nH]c2c(F)cc(F)cc12)N[C@H]1CCNC1=O`: the IC50 (in test [1]; against Apolipoprotein L1) was < 250 nM each time.

Turning to `Cc1c(F)c(F)cc2c(CCC(=O)N[C@@H]3C(=O)NC[C@H]3O)c(-c3ccc(F)cc3)[nH]c12`, the IC50 (in test [1]; against Apolipoprotein L1) was < 250 nM each time.

As for `O=C(CCc1c(-c2ccc(F)cc2)[nH]c2c(F)c(F)ccc12)N[C@@H]1C(=O)NC[C@H]1O`, the IC50 (in test [1]; against Apolipoprotein L1) was < 250 nM throughout.

As to `O=C(CCc1c(-c2ccccc2)[nH]c2cc(F)ccc12)N[C@@H]1C(=O)NC[C@H]1O`, the IC50 (in test [1]; against Apolipoprotein L1) was < 250 nM throughout.

For the compound `O=C(CCc1c(-c2ccc(F)cc2)[nH]c2ccc(OCc3ccccc3)cc12)N[C@H]1CCNC1=O`, the IC50 (in test [1]; against Apolipoprotein L1) was 250 nM in each case.

For `O=C(CCc1c(-c2cc(F)cc(F)c2)[nH]c2ccccc12)N[C@@H]1C(=O)NC[C@H]1O`, the IC50 (in test [1]; against Apolipoprotein L1) was 250 nM throughout.

Turning to `O=C(CCc1c(-c2ccc(F)c(F)c2)[nH]c2ccccc12)N[C@@H]1C(=O)NC[C@H]1O`, the IC50 (in test [1]; against Apolipoprotein L1) was < 250 nM throughout.

Turning to `COc1ccc(-c2[nH]c3ccccc3c2CCC(=O)N[C@@H]2C(=O)NC[C@H]2O)cc1`, the concentration for half-maximal inhibition (IC50) (in test [1]; against Apolipoprotein L1) was < 250 nM throughout.

`O=C(CCc1c(-c2ccc(C(F)F)cc2)[nH]c2ccccc12)N[C@@H]1C(=O)NC[C@H]1O`: the IC50 (in test [1]; against Apolipoprotein L1) was < 250 nM each time.

As for `O=C(CCc1c(-c2ccccc2)[nH]c2cc(F)cc(F)c12)N[C@@H]1C(=O)NC[C@H]1O`, the IC50 (in test [1]; at Apolipoprotein L1) was < 250 nM throughout.

For the compound `N#Cc1cc(F)cc2c(CCC(=O)N[C@@H]3C(=O)NC[C@H]3O)c(-c3ccc(F)cc3)[nH]c12`, the IC50 (in test [1]; against Apolipoprotein L1) was < 250 nM throughout.

As to `O=C(CCc1c(-c2ccccc2)[nH]c2ccccc12)N[C@@H]1C(=O)NC[C@H]1O`, the IC50 (in test [1]; on Apolipoprotein L1) was < 250 nM each time.

Consider `O=C(CCc1c(-c2ccc(F)cc2)[nH]c2c(F)cc(C(F)(F)F)cc12)N[C@@H]1C(=O)NC[C@H]1O`, for which the IC50 (in test [1]; against Apolipoprotein L1) was < 250 nM throughout.

On to `Cc1ccc(-c2[nH]c3ccccc3c2CCC(=O)N[C@@H]2C(=O)NC[C@H]2O)c(F)c1`, for which the IC50 (in test [1]; against Apolipoprotein L1) was < 250 nM each time.

`CC1(NC(=O)CCc2c(-c3ccc(F)cc3)[nH]c3c(F)cc(F)cc23)CCNC1=O` (stereo unspecified): the IC50 in test [1] was < 250 nM; on Apolipoprotein L1, 250 nM.

Regarding `Cc1ccc(-c2[nH]c3ccccc3c2CCC(=O)N[C@@H]2C(=O)NC[C@H]2O)cc1F`, the IC50 (in test [1]; against Apolipoprotein L1) was < 250 nM each time.

Consider `O=C(CCc1c(-c2ccccc2)[nH]c2ccc(F)cc12)N[C@H]1CCNC1=O`, for which the IC50 (in test [1]; at Apolipoprotein L1) was < 250 nM each time.

For `[2H]C([2H])(C(=O)N[C@@H]1C(=O)NC[C@H]1O)C([2H])([2H])c1c(-c2ccc(F)cc2)[nH]c2c(F)cc(F)cc12`, the concentration for half-maximal inhibition (IC50) (in test [1]; against Apolipoprotein L1) was < 250 nM each time.

Consider `O=C(CCc1c(-c2ccc(F)cc2)[nH]c2ccc(C(F)(F)F)cc12)N[C@@H]1C(=O)NC[C@H]1O`, for which the half-maximal inhibitory concentration (IC50) (in test [1]; against Apolipoprotein L1) was < 250 nM each time.

As to `O=C(CCc1c(-c2cccc(F)c2)[nH]c2c(F)cc(F)cc12)N[C@@H]1C(=O)NC[C@H]1O`, the IC50 (in test [1]; against Apolipoprotein L1) was < 250 nM throughout.

On to `O=C(CCc1c(-c2ccc(F)cc2)[nH]c2c(F)cc(F)cc12)N[C@@H]1CCNC1=O`, for which the IC50 is < 250 nM in test [1] and 250 nM at Apolipoprotein L1.

As to `O=C(CCc1c(-c2ccc(F)cc2)[nH]c2c(F)cc(F)cc12)N[C@@H]1C(=O)NC[C@H]1O` [INAXAPLIN], the half-inhibitory concentration (IC50) (in test [1]; against Apolipoprotein L1) was < 250 nM in each case.

For `O=C(CCc1c(-c2ccccc2)[nH]c2c(C(F)(F)F)cccc12)N[C@@H]1C(=O)NC[C@H]1O`, the IC50 in test [1] is > 1000 nM; against Apolipoprotein L1, 250 nM.

As for `O=C(CCc1c(-c2ccc(F)cc2)[nH]c2c(F)cc(F)cc12)N[C@@H]1C(=O)NC[C@@H]1O`, the IC50 (in test [1]; at Apolipoprotein L1) was < 250 nM throughout.

As for `O=C(CCc1c(-c2ccccc2)[nH]c2c(F)c(F)c(F)cc12)N[C@@H]1C(=O)NC[C@H]1O`, the concentration for half-maximal inhibition (IC50) (in test [1]; against Apolipoprotein L1) was < 250 nM each time.

In the case of `N#Cc1cc(F)c2[nH]c(-c3ccc(F)cc3)c(CCC(=O)N[C@H]3CCNC3=O)c2c1`, the IC50 (in test [1]; against Apolipoprotein L1) was > 1000 nM each time.

Take `O=C(CCc1c(-c2ccc(F)cc2)[nH]c2c(F)cc(Cl)cc12)N[C@@H]1C(=O)NC[C@H]1O`: the IC50 (in test [1]; against Apolipoprotein L1) was < 250 nM throughout.

`Cc1cc(F)c2[nH]c(-c3ccc(F)cc3)c(CCC(=O)N[C@@H]3C(=O)NC[C@H]3O)c2c1`: the IC50 (in test [1]; against Apolipoprotein L1) was < 250 nM throughout.

As for `Cc1cc(F)cc2c(CCC(=O)N[C@@H]3C(=O)NC[C@H]3O)c(-c3ccc(F)cc3)[nH]c12`, the IC50 (in test [1]; against Apolipoprotein L1) was < 250 nM throughout.

Turning to `O=C(CCc1c(-c2ccc(OC(F)F)cc2)[nH]c2c(F)cc(F)cc12)N[C@@H]1C(=O)NC[C@H]1O`, the IC50 (in test [1]; against Apolipoprotein L1) was < 250 nM throughout.

On to `O=C(CCc1c(-c2cc(F)cc(F)c2)[nH]c2c(F)cc(F)cc12)N[C@@H]1C(=O)NC[C@H]1O`, for which the values for the half-inhibitory concentration (IC50) (in test [1]; on Apolipoprotein L1) were 250 nM and < 250 nM, respectively.

Consider `Cc1cc(-c2[nH]c3ccccc3c2CCC(=O)N[C@@H]2C(=O)NC[C@H]2O)ccc1F`, for which the IC50 (in test [1]; against Apolipoprotein L1) was < 250 nM each time.

Regarding `O=C(CCc1c(-c2ccc(F)cc2)[nH]c2c(Cl)cccc12)N[C@H]1CCNC1=O`, the IC50 (in test [1]; against Apolipoprotein L1) was < 250 nM throughout.

Regarding `N#Cc1ccc(-c2[nH]c3c(F)cc(F)cc3c2CCC(=O)N[C@H]2CCNC2=O)cc1`, the IC50 (in test [1]; on Apolipoprotein L1) was < 250 nM each time.

In the case of `O=C(CCc1c(-c2ccc(Cl)c(F)c2)[nH]c2ccccc12)N[C@@H]1C(=O)NC[C@H]1O`, the IC50 (in test [1]; against Apolipoprotein L1) was < 250 nM in each case.

For orientation: IC50 means the concentration needed to halve the response being measured.
